The values that follow come from patent publication US8466160B2, “Identification of non-small cell lung carcinoma (NSCLC) tumors expressing PDGFR-alpha” (priority 2005, dated 2013).

Experiment [1] deals with A549 cell line. The experiment can be described thus: MTT cell proliferation assay, A549. Type of experiment: cell-based, human.
In another experiment the test system is K562 cell line. The experiment can be described thus: MTT cell proliferation assay, K562. Type of experiment: cell-based.
Experiment [2] has as its system AKT phosphorylation. Put plainly: IHC of AKT phosphorylation in xenograft tumors. Type of experiment: in vivo, mice. The conditions noted are these: treated vs control tumors, FIG. 11. The procedure:
(§1) In this model, human cell lines are injected into immune-compromised mice forming xenograft tumors that resemble human tumors including vascularization and other features found in human tumors. The mice are then administered the drug in the same manner as in human patients. Tumor size may be monitored visually during drug treatment and the tumors may be removed, fixed and analyzed by standard IHC procedures or lysed and analyzed by Western blot.

Experiment [3] concerns A549 cell line. The conditions noted are these: Mol. Cancer 2003, not reproduced by the inventors; cited from earlier work.
The test system of experiment [4] is AKT phosphorylation. Put plainly: Western blot of AKT phosphorylation in H1703 cells. Type of experiment: cell-based, human. The procedure:
(§2) Phosphorylation of the EGFR receptor, ERK and AKT were determined while total PDGFRα and ERK1/2 are included as loading controls. […] AKT is thought to be the primary driver of cell survival (see Franke, Cell 88: 435-437 (1997)).

A further experiment relates to H1703 cell line. The experiment can be described thus: MTT cell proliferation assay, H1703. Type of experiment: cell-based, human. To be noted: concentrations similar to K562 (0.1 μM).
The test system of experiment [5] is PDGFRα phosphorylation. The experiment can be described thus: Western blot / IHC of PDGFRα phosphorylation in xenograft tumors. Type of experiment: in vivo, mice. On the procedure:
as §1

For experiment [6], the system named is PDGFRα-expressing human NSCLC tumors (H1703) xenografts. The experiment can be described thus: Tumor size in mouse xenografts of PDGFRα-expressing human NSCLC tumors. Type of experiment: in vivo, mice. On the procedure: This hypothesis was tested using mouse xenografts derived from the H1703 cell line.
as §1

The subject of another experiment is H1373 cell line. Put plainly: MTT cell proliferation assay, H1373. Type of experiment: cell-based, human.
Experiment [7] deals with PDGFRα phosphorylation. The experiment can be described thus: Western blot of PDGFRα phosphorylation in H1703 cells. Type of experiment: cell-based, human. The conditions noted are these: dose response, FIG. 9(b).
Another experiment has as its system ERK phosphorylation. Put plainly: Western blot of ERK phosphorylation in H1703 cells. Type of experiment: cell-based, human. The conditions noted are these: FIG. 9(a). The procedure:
as §2

Counter-ions that a name gives are not always drawn. Bounds are passed on as bounds.

With `Cc1ccc(NC(=O)c2ccc(CN3CCN(C)CC3)cc2)cc1Nc1nccc(-c2cccnc2)n1` [Gleevec®, Imatinib mesylate], the “concentration up to which cell growth was not affected (MTT)” value in the experiment with A549 cell line [1] was more than 10 µM. Moreover, in the experiment with K562 cell line, the “concentration at which cell line is sensitive (MTT)” value was 0.1 µM. Moreover, in the experiment on AKT phosphorylation [2], the “effect on AKT phosphorylation in xenograft tumors (IHC)” value is “decrease”. Further, the “growth of A549 cell line as reported by Zhang et al.” value in the experiment with A549 cell line [3] is given as “growth inhibition”. Further, in the experiment on AKT phosphorylation [4] (Western blot, FIG. 9(a)), the “effect on AKT phosphorylation” value is “loss of AKT phosphorylation”. In addition, the “dose that greatly inhibits AKT phosphorylation” value with AKT phosphorylation [4] (dose response, FIG. 9(b)) was 0.1 µM. Further, the figures for the “sensitivity of cell growth to Gleevec (MTT)” value in the experiment with H1703 cell line and in the experiment on H1373 cell line were “sensitive” and “insensitive”, respectively. Also, the “effect on PDGFRα phosphorylation in xenograft tumors (IHC)” value in the experiment on PDGFRα phosphorylation [5] (treated vs control tumors, FIG. 11) is “decrease”. For the same compound, the “effect on PDGFRα phosphorylation in xenografts (Western blot)” value in the experiment on PDGFRα phosphorylation [5] (tumor lysate, 4 treated mice vs one control) is on record as “inhibiting PDGFRα phosphorylation”. Also, the “average tumor diameter in treated mice” value in [6] (3 treated mice, control approximately 190 mm) is “approximately 20 mm”. Besides, in experiment [6] (xenograft, FIG. 10(a)), the “effect on tumor size” value is “significant decrease in tumor size”. Besides, the “lowest dose that inhibits PDGFRα phosphorylation” value in the experiment with PDGFRα phosphorylation [7] was 0.01 µM.

On to `COc1cc2ncnc(Nc3ccc(F)c(Cl)c3)c2cc1OCCCN1CCOCC1` [Iressa™], for which, in the experiment on ERK phosphorylation, the “effect on ERK phosphorylation” value was “decreases”.
